According to patent US10584115B2, “Substituted pyridine and pyrazine BMI-1 inhibitors” (PTC Therapeutics, Inc., priority 2013, dated 2020):
Where two headings read alike, the source gives them in different places.

Test system: Bmi-1 protein
Assay: Sandwich ELISA Assay (Bmi-1 protein level in HT-1080 cells after compound treatment)
Format: cell-based
Summary of the method: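 Sandwich ELISA quantified Bmi-1 protein against recombinant standard (125–8000 pg/mL), with lysates captured overnight at 4 °C and signal by HRP/TMB at 450 nm (570 nm reference). Lysates came from HT-1080 cells incubated 40–48 h with test compounds in 0.5% DMSO.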

[1] = Table 1, Bmi-1 sandwich ELISA, read-out: ELISA EC50 value for Bmi-1 protein
[2] = read-out: ELISA EC50 value for Bmi-1 protein, Table 1, Bmi-1 sandwich ELISA

SMILES | EC50 [1] | EC50 [2]
N#Cc1cc(Nc2ccc(OC(F)(F)F)cc2)nc(-c2c(C(F)(F)F)nc3ccc(F)cn23)c1 [compound 222, 2-[6-fluoro-2-(trifluoromethyl)imidazo[1,2-a]pyridin-3-yl]-6-{[4-(trifluoromethoxy)phenyl]amino}pyridine-4-carbonitrile] | 10 to 100 nM | 
Cc1nc2cc(Cl)ccc2n1-c1cncc(Nc2ccc(OC(F)(F)F)cc2)n1 [compound 223, 6-(5-chloro-2-methyl-1H-benzimidazol-1-yl)-N-[4-(trifluoromethoxy)phenyl]pyrazin-2-amine] | 100 to 3000 nM | 
Cc1n[nH]c(C)c1-c1cncc(Nc2ccc(C(F)(F)F)cc2)n1 [compound 226, 6-(3,5-dimethyl-1H-pyrazol-4-yl)-N-[4-(trifluoromethyl)phenyl]pyrazin-2-amine] | 100 to 3000 nM | 
FC(F)(F)c1ccc(Nc2cncc(-c3cnc4ccccn34)n2)cc1 [compound 235, 6-(imidazo[1,2-a]pyridin-3-yl)-N-[4-(trifluoromethyl)phenyl]pyrazin-2-amine] |  | 100 to 3000 nM
Cc1nc2cc(F)c(F)cc2n1-c1cc(C#N)cc(Nc2ccc(C(F)(F)F)cc2)n1 [compound 241, 2-(5,6-difluoro-2-methyl-1H-benzimidazol-1-yl)-6-{[4-(trifluoromethyl)phenyl]amino}pyridine-4-carbonitrile] | 10 to 100 nM | 
Cc1nc2c(F)cc(F)cn2c1-c1cncc(Nc2ccc(C(F)(F)F)cc2)n1 [compound 254, 6-(6,8-difluoro-2-methylimidazo[1,2-a]pyridin-3-yl)-N-[4-(trifluoromethyl)phenyl]pyrazin-2-amine] |  | 1 to 10 nM
Cc1nc2c(F)cc(F)cn2c1-c1cncc(Nc2ccc(OC(F)F)cc2)n1 [compound 255, N-[4-(difluoromethoxy)phenyl]-6-(6,8-difluoro-2-methylimidazo[1,2-a]pyridin-3-yl)pyrazin-2-amine] | 1 to 10 nM | 
Cc1nc2c(n1-c1cncc(Nc3ccc(OC(F)F)cc3)n1)CCCC2 [compound 258, N-[4-(difluoromethoxy)phenyl]-6-(2-methyl-4,5,6,7-tetrahydro-1H-benzimidazol-1-yl)pyrazin-2-amine] | 1 to 10 nM | 
Cc1nc2c(n1-c1cncc(Nc3ccc(C(F)(F)F)cc3)n1)CCCC2 [compound 267, 6-(2-methyl-4,5,6,7-tetrahydro-1H-benzimidazol-1-yl)-N-[4-(trifluoromethyl)phenyl]pyrazin-2-amine] | 1 to 10 nM | 
Cc1nc2c(n1-c1cncc(Nc3ccc(OC(F)(F)F)cc3)n1)CCCC2 [compound 268, 6-(2-methyl-4,5,6,7-tetrahydro-1H-benzimidazol-1-yl)-N-[4-(trifluoromethoxy)phenyl]pyrazin-2-amine] | 10 to 100 nM | 
Cc1ccc(-c2c(C(F)(F)F)nc3ccccn23)nc1Nc1ccc(C(F)(F)F)cc1 [compound 269, 3-methyl-6-[2-(trifluoromethyl)imidazo[1,2-a]pyridin-3-yl]-N-[4-(trifluoromethyl)phenyl]pyridin-2-amine] |  | 100 to 3000 nM
Cc1nc2ncc(F)cc2n1-c1cncc(Nc2ccc(C(F)(F)F)cc2)n1 [compound 270, 6-(6-fluoro-2-methyl-1H-imidazo[4,5-b]pyridin-1-yl)-N-[4-(trifluoromethyl)phenyl]pyrazin-2-amine] | 1 to 10 nM | 
N#Cc1cc(Nc2ccc(OC(F)F)cc2)nc(-c2c(C(F)(F)F)nc3ccc(F)cn23)c1 [compound 273, 2-{[4-(difluoromethoxy)phenyl]amino}-6-[6-fluoro-2-(trifluoromethyl)imidazo[1,2-a]pyridin-3-yl]pyridine-4-carbonitrile] | 1 to 10 nM | 
Cc1c(-c2cncc(Nc3ccc(C(F)(F)F)cc3)n2)c(C(F)(F)F)nn1C [compound 276, 6-[1,5-dimethyl-3-(trifluoromethyl)-1H-pyrazol-4-yl]-N-[4-(trifluoromethyl)phenyl]pyrazin-2-amine] | 10 to 100 nM | 
Cc1c(-c2cncc(Nc3ccc(OC(F)F)cc3)n2)c(C(F)(F)F)nn1C [compound 280, N-[4-(difluoromethoxy)phenyl]-6-[1,5-dimethyl-3-(trifluoromethyl)-1H-pyrazol-4-yl]pyrazin-2-amine] |  | 10 to 100 nM
Cc1nc2c([N+](=O)[O-])cccc2n1-c1cncc(Nc2ccc(C(F)(F)F)cc2)n1 [compound 284, 6-(2-methyl-4-nitro-1H-benzimidazol-1-yl)-N-[4-(trifluoromethyl)phenyl]pyrazin-2-amine] | 100 to 3000 nM | 
O=[N+]([O-])c1cc(Nc2ccc(C(F)(F)F)cc2)nc(-c2c(C(F)(F)F)nc3ccc(F)cn23)c1 [compound 286, 6-[6-fluoro-2-(trifluoromethyl)imidazo[1,2-a]pyridin-3-yl]-4-nitro-N-[4-(trifluoromethyl)phenyl]pyridin-2-amine] |  | 10 to 100 nM
Nc1cc(Nc2ccc(C(F)(F)F)cc2)nc(-c2c(C(F)(F)F)nc3ccc(F)cn23)c1 [compound 287, 6-[6-fluoro-2-(trifluoromethyl)imidazo[1,2-a]pyridin-3-yl]-N^2-[4-(trifluoromethyl)phenyl]pyridine-2,4-diamine] |  | 10 to 100 nM

Second part, led by results:

EC50 [1] | SMILES | EC50 [2]
10 to 100 nM | Cc1nc2ccc(Cl)cc2n1-c1cncc(Nc2ccc(OC(F)(F)F)cc2)n1 [compound 220, 6-(6-chloro-2-methyl-1H-benzimidazol-1-yl)-N-[4-(trifluoromethoxy)phenyl]pyrazin-2-amine] | 
1 to 10 nM | Cc1nc2ccc(Cl)cc2n1-c1cncc(Nc2ccc(OC(F)F)cc2)n1 [compound 221, 6-(6-chloro-2-methyl-1H-benzimidazol-1-yl)-N-[4-(difluoromethoxy)phenyl]pyrazin-2-amine] | 
10 to 100 nM | Cc1nc2cc(Cl)ccc2n1-c1cncc(Nc2ccc(OC(F)F)cc2)n1 [compound 224, 6-(5-chloro-2-methyl-1H-benzimidazol-1-yl)-N-[4-(difluoromethoxy)phenyl]pyrazin-2-amine] | 
100 to 3000 nM | CNc1ccc2nc(C)n(-c3cncc(Nc4ccc(OC(F)(F)F)cc4)n3)c2c1 [compound 225, N,2-dimethyl-1-(6-{[4-(trifluoromethoxy)phenyl]amino}pyrazin-2-yl)-1H-benzimidazol-6-amine] | 
10 to 100 nM | Cc1nc2cc(F)c(F)cc2n1-c1cc(N)cc(Nc2ccc(C(F)(F)F)cc2)n1 [compound 231, 6-(5,6-difluoro-2-methyl-1H-benzimidazol-1-yl)-N^2-[4-(trifluoromethyl)phenyl]pyridine-2,4-diamine] | 
10 to 100 nM | Cc1nc2cc(Cl)ccc2n1-c1cncc(Nc2ccc(C(F)(F)F)cc2)n1 [compound 239, 6-(5-chloro-2-methyl-1H-benzimidazol-1-yl)-N-[4-(trifluoromethyl)phenyl]pyrazin-2-amine] | 
10 to 100 nM | Cc1nc2ccc(Cl)cc2n1-c1cncc(Nc2ccc(C(F)(F)F)cc2)n1 [compound 240, 6-(6-chloro-2-methyl-1H-benzimidazol-1-yl)-N-[4-(trifluoromethyl)phenyl]pyrazin-2-amine] | 
10 to 100 nM | Cc1nc2cc(F)c(F)cc2n1-c1cc(C#N)cc(Nc2ccc(OC(F)F)cc2)n1 [compound 242, 2-{[4-(difluoromethoxy)phenyl]amino}-6-(5,6-difluoro-2-methyl-1H-benzimidazol-1-yl)pyridine-4-carbonitrile] | 
100 to 3000 nM | Cc1nc2cc(F)c(F)cc2n1-c1cc(C#N)cc(Nc2ccc(OC(F)(F)F)cc2)n1 [compound 243, 2-(5,6-difluoro-2-methyl-1H-benzimidazol-1-yl)-6-{[4-(trifluoromethoxy)phenyl]amino}pyridine-4-carbonitrile] | 
10 to 100 nM | FC(F)Oc1ccc(Nc2cncc(-c3c(C4CC4)nc4ccc(C(F)(F)F)cn34)n2)cc1 [compound 251, 6-[2-cyclopropyl-6-(trifluoromethyl)imidazo[1,2-a]pyridin-3-yl]-N-[4-(difluoromethoxy)phenyl]pyrazin-2-amine] | 
100 to 3000 nM | Cc1nc2ccccc2n1-c1cncc(Nc2ccc(C(C)N)cc2)n1 (stereo not drawn) [compound 256, N-[4-(1-aminoethyl)phenyl]-6-(2-methyl-1H-benzimidazol-1-yl)pyrazin-2-amine] | 
10 to 100 nM | Cc1nc2cc(F)c(F)cc2n1-c1cncc(Nc2ccc(OC(F)(F)F)cc2)n1 [compound 266, 6-(5,6-difluoro-2-methyl-1H-benzimidazol-1-yl)-N-[4-(trifluoromethoxy)phenyl]pyrazin-2-amine] | 
1 to 10 nM | CCc1nc2ncc(F)cc2n1-c1cncc(Nc2ccc(C(F)(F)F)cc2)n1 [compound 271, 6-(2-ethyl-6-fluoro-1H-imidazo[4,5-b]pyridin-1-yl)-N-[4-(trifluoromethyl)phenyl]pyrazin-2-amine] | 
10 to 100 nM | N#Cc1cc(Nc2ccc(C(F)(F)F)cc2)nc(-c2c(C(F)(F)F)nc3ccc(F)cn23)c1 [compound 272, 2-[6-fluoro-2-(trifluoromethyl)imidazo[1,2-a]pyridin-3-yl]-6-{[4-(trifluoromethyl)phenyl]amino}pyridine-4-carbonitrile] | 
10 to 100 nM | CNc1ccc2nc(C)n(-c3cncc(Nc4ccc(C(F)(F)F)cc4)n3)c2c1 [compound 274, N,2-dimethyl-1-(6-{[4-(trifluoromethyl)phenyl]amino}pyrazin-2-yl)-1H-benzimidazol-6-amine] | 
10 to 100 nM | Cc1nc2ccc(NCc3ccccc3)cc2n1-c1cncc(Nc2ccc(C(F)(F)F)cc2)n1 [compound 275, N-benzyl-2-methyl-1-(6-{[4-(trifluoromethyl)phenyl]amino}pyrazin-2-yl)-1H-benzimidazol-6-amine] | 
10 to 100 nM | Cc1cccc2c1nc(C)n2-c1cncc(Nc2ccc(C(F)(F)F)cc2)n1 [compound 283, 6-(2,4-dimethyl-1H-benzimidazol-1-yl)-N-[4-(trifluoromethyl)phenyl]pyrazin-2-amine] | 
10 to 100 nM | Cc1nc2ccc(N)cc2n1-c1cncc(Nc2ccc(C(F)(F)F)cc2)n1 [compound 285, 2-methyl-1-(6-{[4-(trifluoromethyl)phenyl]amino}pyrazin-2-yl)-1H-benzimidazol-6-amine] | 
